Data taken from patent US20250388605A1, “HETEROBIFUNCTIONAL COMPOUNDS AND METHODS OF TREATING DISEASE” (Halda Therapeutics OpCo, Inc., priority 2022, published 2025).

Key:
T47D cells = assay: Cellular Growth Inhibition Assay for T47D Cells (CellTiter-Glo); type: cell-based, human; settings: Homo sapiens, 72 hours
Outline: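 GI50 values derive from four-parameter regression of CellTiter-Glo 2.0 luminescence, using zero luminescence as baseline. Human breast cancer T47D cells (3000/well; DMEM, 10% FBS, 0.2 units/mL insulin) were exposed for 72 h to compound dilutions at 0.5% DMSO, with dosing starting 24 h after seeding.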

progesterone receptor = molecular target: T1, progesterone receptor (Homo sapiens, UniProt P06401); assay: PR Human Progesterone NHR Binding (Agonist Radioligand) Assay, [3H]progesterone, T47D cytosolic fractions; settings: 0.5 nM [3H]progesterone, 1 hour at 4° C.
T1 sequence (P06401 679-933 limits assumed): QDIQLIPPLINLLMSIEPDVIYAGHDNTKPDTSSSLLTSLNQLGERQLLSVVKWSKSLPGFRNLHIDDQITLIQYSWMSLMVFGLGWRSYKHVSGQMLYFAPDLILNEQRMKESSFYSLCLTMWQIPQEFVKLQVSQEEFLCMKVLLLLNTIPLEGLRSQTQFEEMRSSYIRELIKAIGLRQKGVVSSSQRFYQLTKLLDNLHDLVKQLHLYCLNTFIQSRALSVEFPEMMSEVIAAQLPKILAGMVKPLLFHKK
Description: Exemplary compounds were tested for ability to bind to the progesterone receptor.
Compounds were tested using the PR Human Progesterone NHR Binding (Agonist Radioligand) Assay, Cerep at Eurofins Discovery using a modified version of the protocol from Sarup et al. (Cancer Res 1988; 48:5071-5078). Briefly, cytosolic fractions of T47D cells were incubated with 0.5 nM [^3H]progesterone for 1 hour at 4° C. in the absence or presence of the test compound. Nonspecific binding was determined in the presence of […] promegestone. Reactions were subjected to scintillation counting. Results are expressed as a percent inhibition of the control radioligand specific binding.

Cn1cc(-c2cc(C(C)(C)O)ccc2Oc2ccc(N3CC(CC4CCN(c5cnc(C(=O)N[C@H]6C(C)(C)[C@H](Oc7ccc(C#N)c(C(F)(F)F)c7)C6(C)C)cn5)CC4)C3)cc2)c2cc[nH]c2c1=O [Compound I-373]
GI50 (T47D cells): < 0.5 µM
Ki (progesterone receptor): 0.5 to 2.5 µM
